Laboratory results as given in patent publication USRE30241E, “Esters of 3-(hydroxy or hydroxymethyl)-4-hydroxyphenyl aminomethyl ketones” (Sterling Drug Inc., priority 1970, dated 1980).

Legend:
[1] = Solubility and pH of salts; settings: dimethyl sulfoxide, organic solvent or mixture
heart rate = assay: Cardiovascular studies: effect on the heart rate in the anesthetized dog; assay type: in vivo
In short: (§1)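 Anesthetized dogs, mostly spontaneously breathing, some open-chest, given rapid intravenous injections. Heart rate by electrocardiograph with blood pressure recorded simultaneously, every 0.5-1 minute for 10 minutes then every 2-5 minutes until recovery; several doses or compounds sometimes tested alternately in one dog.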

[2] = system: guinea pig bronchioles constricted by carbachol; assay: Bronchodilator Test Method II, in vitro perfused guinea pig lung
Description: In this method bronchodilator activity in vitro was determined by testing the effect of graded doses of the test compounds on guinea pig bronchioles constricted by carbachol, using the technique reported by Sollman and von Oettingen, Proc. Soc, Exp. Biol. Med., 25,692 (1928) as modified by Tainter, Pedden, and James, J. Pharm. Exp. Ther., 51, 371 (1934) and by Luduena, von Euler, Tullar, and Lands, Arch. intern. Pharmacol., III, 392 (1957).

[3] = system: carbachol- or histamine-induced bronchoconstriction; assay: Bronchodilator Test Method I, anesthetized dog, intraduodenal activity; assay type: in vivo; settings: Canis lupus familiaris, read-out: Bronchodilation; for inhibition in vivo at 0.07 mg/kg: 70 mcg/kg (salt) intraduodenal; for inhibition in vivo at 0.14 mg/kg: 140 mcg/kg (salt) intraduodenal; for inhibition in vivo at 0.28 mg/kg: 280 mcg/kg (salt) intraduodenal
In short: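 Pentobarbital-anesthetized (30 mg/kg i.v.) open-chest dogs of 9-18 kg, artificially ventilated; airway pressure recorded via tracheal cannula transducer. Test solution injected intraduodenally; from 5 min, i.v. carbachol (4-6 μg/kg) or histamine diphosphate (35-45 μg/kg) challenges every 30-60 min gauged degree and duration of bronchodilation.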

diastolic blood pressure = assay: Effect on diastolic blood pressure in the anesthetized dog; assay type: in vivo
In short: as §1

[4] = system: carbachol- or histamine-induced bronchoconstriction; assay: Bronchodilator Test Method I, anesthetized dog, intravenous activity; assay type: in vivo; settings: Canis lupus familiaris, read-out: Bronchodilatation; for inhibition in vivo at 0.07 mg/kg: 70 mcg/kg i.v.; for inhibition in vivo at 0.14 mg/kg: 140 mcg/kg i.v.; for inhibition in vivo at 0.28 mg/kg: 280 mcg/kg i.v.
In short: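 Pentobarbital-anesthetized (30 mg/kg i.v.), open-chest, artificially ventilated dogs were given i.v. carbachol (4-6 µg/kg) or histamine diphosphate (35-45 µg/kg). Test compound was given i.v. mixed with, after, or 1-10 min before the constrictor.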

solubility [1]: ≥ 10000 µg/mL
SMILES: Cc1ccc(C(=O)Oc2ccc(C(O)CNC(C)(C)C)cc2OC(=O)c2ccc(C)cc2)cc1 (stereo not drawn) [Example 30, 3,4-bis(p-toluyloxy)-alpha-(tert-butylaminomethyl)benzyl alcohol methanesulfonate]
Mean Maximal Increase in the Heart Rate (heart rate; 70 mcg/kg (salt) i.v.): 9% | Mean Maximal Increase in the Heart Rate (heart rate; 140 mcg/kg (salt) i.v.): 15% | Mean Maximal Increase in the Heart Rate (heart rate; 280 mcg/kg (salt) i.v.): 28% | ED50 ([2]; carbachol (Doryl) 1:5 million): 3.2 µg (base) | Duration, Mean ([2]; dose 10 mcg (base)): 60 ± 9.6 min | inhibition in vivo at 0.07 mg/kg ([3]; 10 min, 10 min, mean of 3 dogs): 38% | inhibition in vivo at 0.14 mg/kg ([3]; 10 min, 10 min): 30% | inhibition in vivo at 0.28 mg/kg ([3]; 10 min, 10 min): 75% | inhibition in vivo at 0.07 mg/kg ([3]; 0.5 h, 30 min): 45% | inhibition in vivo at 0.14 mg/kg ([3]; 0.5 h, 30 min): 35% | inhibition in vivo at 0.28 mg/kg ([3]; 0.5 h, 30 min): 71% | inhibition in vivo at 0.07 mg/kg ([3]; 1 h, 60 min): 42% | inhibition in vivo at 0.14 mg/kg ([3]; 1 h, 60 min): 36% | inhibition in vivo at 0.28 mg/kg ([3]; 1 h, 60 min, mean of 3 dogs): 64% | inhibition in vivo at 0.07 mg/kg ([3]; 2 h, 120 min, mean of 3 dogs): 42% | inhibition in vivo at 0.14 mg/kg ([3]; 2 h, 120 min): 45% | inhibition in vivo at 0.28 mg/kg ([3]; 2 h, 120 min): 56% | inhibition in vivo at 0.07 mg/kg ([3]; 3 h, 180 min): 42% | inhibition in vivo at 0.14 mg/kg ([3]; 3 h, 180 min): 40% | inhibition in vivo at 0.28 mg/kg ([3]; 3 h, 180 min): 50% | inhibition in vivo at 0.07 mg/kg ([3]; 4 h, 240 min, mean of 3 dogs): 25% | inhibition in vivo at 0.14 mg/kg ([3]; 4 h, 240 min): 47% | inhibition in vivo at 0.28 mg/kg ([3]; 4 h, 240 min, mean of 3 dogs): 45% | inhibition in vivo at 0.28 mg/kg ([3]; 5 h, 300 min, mean of 3 dogs): 37% | Mean Decrease in Diastolic Blood Pressure (diastolic blood pressure; 70 meg/kg (salt) i.v.): 2% | Mean Decrease in Diastolic Blood Pressure (diastolic blood pressure; 140 meg/kg (salt) i.v.): 11% | Mean Decrease in Diastolic Blood Pressure (diastolic blood pressure; 280 meg/kg (salt) i.v.): 11.5% | inhibition in vivo at 0.07 mg/kg ([4]; 5 min, 5 min): 54% | inhibition in vivo at 0.14 mg/kg ([4]; 5 min, 5 min): 65% | inhibition in vivo at 0.28 mg/kg ([4]; 5 min, 5 min): 83% | inhibition in vivo at 0.07 mg/kg ([4]; 0.5 h, 30 min): 63% | inhibition in vivo at 0.14 mg/kg ([4]; 0.5 h, 30 min): 76% | inhibition in vivo at 0.28 mg/kg ([4]; 0.5 h, 30 min): 88% | inhibition in vivo at 0.07 mg/kg ([4]; 1 h, 60 min): 61% | inhibition in vivo at 0.14 mg/kg ([4]; 1 h, 60 min): 69% | inhibition in vivo at 0.28 mg/kg ([4]; 1 h, 60 min): 75% | inhibition in vivo at 0.07 mg/kg ([4]; 2 h, 120 min): 52% | inhibition in vivo at 0.14 mg/kg ([4]; 2 h, 120 min): 55% | inhibition in vivo at 0.28 mg/kg ([4]; 2 h, 120 min): 72% | inhibition in vivo at 0.14 mg/kg ([4]; 3 h, 180 min): 62% | inhibition in vivo at 0.28 mg/kg ([4]; 3 h, 180 min): 64% | inhibition in vivo at 0.07 mg/kg ([4]; 4 h, 240 min): 37% | inhibition in vivo at 0.28 mg/kg ([4]; 4 h, 240 min): 50% | inhibition in vivo at 0.14 mg/kg ([4]; 4.5 h, 270 min): 42%
